We go through 15 molecules from patent publication US11919901B2 (Syndax Pharmaceuticals, Inc., priority 2021, dated 2024).

One data set concerns MV4-11 cells. The data set is described as follows: Cell proliferation assay MV4;11 (CellTiter-Glo, 72 hours). It is filed as cell-based. Conditions: Homo sapiens; MV4;11 leukemia cell line, 72 hours; read-out: MV4; 11 IC50. As to the method:
Compounds were evaluated for its capacity to inhibit the proliferation of the MLLr leukemia cell line MV4-11 that harbors an MLL1-AF4 fusion protein. MV4-11 cells were cultured for 72 hours with limiting dilutions of compounds and viability was measured using CellTiter-Glo.
Compounds were dissolved to obtain as 10 mM solution in DMSO. The stock was diluted 1:5 to the top concentration of 2 mM in 100% DMSO. For IC50 determination, serial 1:3.16 dilutions were prepared in 100% DMSO by diluting 20 μL into 43.5 μL of DMSO for 8 concentrations. Each prepared DMSO solution were further diluted 1:500 in the cell culture media to obtain the 2× dosing solutions. The final concentrations of tested compounds in the cell culture media ranged from 0.632 nM to 2000 nM.
MV4-11 cells were cultured in IMDM with 10% FBS and 1× Penicillin-Streptomycin at 5% CO2 and 37° C. A cell suspension was prepared containing 15,000 cells/ml in the culture medium and 100 μL of this suspension was added per well to a 96-well cell culture plate. Then, 100 μL of 2× dosing media containing test compounds were added bringing the total volume to 200 μL. These cells were cultured for 72 hours at 37° C. and 5% CO2 in a humidified incubator.
After 72 hours, the cultured cells were mixed and 100p L was transferred to a 96-well black plate. Cell Titer Glo (100 μl) was then added to this plate. The plate was mixed with shaking for 15 mins at RT, the luminescence was then measured using Tecan Spark 20M spectrophotometer. Cell Viability (%) was determined by RLU of test/RLU average vehicle control*100 and % max inhibition was determined by 100−(% cell viability remaining at the top concentration of compound).

The target of another data set is Menin-MLL (Homo sapiens (Human), UniProt O00255). The data set is described as follows: Determination of binding constants (Ki) to Menin-MLL (HTRF). Conditions: HTRF, 0.25 nM H-FL-Menin, 3.2 nM FITC-MLL-4-43, 24 hr incubation; for Ki: read-out: Menin-MLL Ki HTRF Assay: Ki. For orientation: Time-resolved FRET reads energy transfer from a long-lived donor to a nearby acceptor.
Sequence of Menin-MLL (O00255 whole entry): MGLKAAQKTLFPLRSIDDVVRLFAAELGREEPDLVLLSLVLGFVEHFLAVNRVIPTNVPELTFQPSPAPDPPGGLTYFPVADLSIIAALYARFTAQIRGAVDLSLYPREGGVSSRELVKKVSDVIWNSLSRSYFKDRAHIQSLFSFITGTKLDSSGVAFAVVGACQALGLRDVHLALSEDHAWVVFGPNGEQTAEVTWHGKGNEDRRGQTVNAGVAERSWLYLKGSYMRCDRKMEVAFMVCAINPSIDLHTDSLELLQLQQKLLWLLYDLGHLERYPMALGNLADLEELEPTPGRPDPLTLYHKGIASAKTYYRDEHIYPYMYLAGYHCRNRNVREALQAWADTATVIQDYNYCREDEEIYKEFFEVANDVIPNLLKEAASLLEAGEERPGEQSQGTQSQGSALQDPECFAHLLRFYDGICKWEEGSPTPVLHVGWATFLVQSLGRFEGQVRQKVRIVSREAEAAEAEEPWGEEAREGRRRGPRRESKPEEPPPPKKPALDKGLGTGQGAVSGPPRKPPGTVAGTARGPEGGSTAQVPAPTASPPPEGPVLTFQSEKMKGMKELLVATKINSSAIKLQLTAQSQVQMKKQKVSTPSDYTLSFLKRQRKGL

For another data set, the target named is hERG (Homo sapiens (Human), UniProt Q12809). The data set is described as follows: Patch clamp assay (hERG tail currents, whole-cell). It is filed as cell-based. Conditions: hERG transfected HEK 293 cells; for hERG % Remaining 30 μM: 30 μM compound. Background: Patch clamp records ionic current or voltage across a cell membrane.
Sequence of hERG (Q12809 whole entry): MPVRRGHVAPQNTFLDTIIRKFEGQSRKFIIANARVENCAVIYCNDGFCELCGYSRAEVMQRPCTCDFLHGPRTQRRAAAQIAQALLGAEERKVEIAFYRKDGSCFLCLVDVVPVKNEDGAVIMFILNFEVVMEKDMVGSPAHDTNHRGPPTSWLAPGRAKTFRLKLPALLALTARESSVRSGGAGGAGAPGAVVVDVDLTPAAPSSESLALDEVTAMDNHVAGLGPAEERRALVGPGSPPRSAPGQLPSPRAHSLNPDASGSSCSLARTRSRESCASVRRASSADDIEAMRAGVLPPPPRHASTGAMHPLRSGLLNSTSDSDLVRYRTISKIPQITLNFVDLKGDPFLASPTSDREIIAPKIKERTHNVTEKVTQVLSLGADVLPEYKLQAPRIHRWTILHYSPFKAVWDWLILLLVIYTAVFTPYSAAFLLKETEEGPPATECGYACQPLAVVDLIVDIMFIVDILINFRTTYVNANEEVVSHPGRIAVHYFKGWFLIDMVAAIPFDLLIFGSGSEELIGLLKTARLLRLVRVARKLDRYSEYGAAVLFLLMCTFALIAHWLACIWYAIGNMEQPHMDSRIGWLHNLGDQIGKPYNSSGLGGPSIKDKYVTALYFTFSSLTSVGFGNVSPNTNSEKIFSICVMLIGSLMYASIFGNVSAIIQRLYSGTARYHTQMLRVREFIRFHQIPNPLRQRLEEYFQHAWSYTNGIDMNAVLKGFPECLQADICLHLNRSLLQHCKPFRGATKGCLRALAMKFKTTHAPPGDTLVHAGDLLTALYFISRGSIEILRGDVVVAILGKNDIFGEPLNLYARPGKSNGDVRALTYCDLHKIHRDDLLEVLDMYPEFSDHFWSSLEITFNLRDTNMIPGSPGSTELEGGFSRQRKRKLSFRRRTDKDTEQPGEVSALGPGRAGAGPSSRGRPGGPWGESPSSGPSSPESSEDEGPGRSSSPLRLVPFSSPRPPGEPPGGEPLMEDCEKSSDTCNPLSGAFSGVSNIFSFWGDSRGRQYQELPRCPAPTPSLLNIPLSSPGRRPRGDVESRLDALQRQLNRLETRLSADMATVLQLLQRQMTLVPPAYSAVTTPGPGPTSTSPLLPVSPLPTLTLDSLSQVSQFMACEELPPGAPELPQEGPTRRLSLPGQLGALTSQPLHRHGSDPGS

Consider `CNS(=O)(=O)N[C@H]1CC[C@H](CN2CCC3(CC2)CN(c2ncncc2Oc2ccc(F)cc2C(=O)N(C(C)C)C2CC2)C3)OC1` (stereo in doubt) [Example 146, N-Cyclopropyl-5-fluoro-N-isopropyl-2-((4-(7-(((2R,5S)-5-((N-methylsulfamoyl)amino)tetrahydro-2H-pyran-2-yl)methyl)-2,7-diazaspiro[3.5]nonan-2-yl)pyrimidin-5-yl)oxy)benzamide], for which, in the data set on MV4-11 cells, the IC50 is under 100 nM.

For `CCNS(=O)(=O)N[C@H]1CC[C@H](CN2CCC3(CC2)CN(c2ncnnc2Oc2ccc(F)cc2C(=O)N(CC(F)(F)F)C(C)C)C3)OC1` (stereo in doubt) [Example 193, 2-((5-(7-(((2R,5S)-5-((N-Ethylsulfamoyl)amino)tetrahydro-2H-pyran-2-yl)methyl)-2,7-diazaspiro[3.5]nonan-2-yl)-1,2,4-triazin-6-yl)oxy)-5-fluoro-N-isopropyl-N-(2,2,2-trifluoroethyl)benzamide], the IC50 in the data set with MV4-11 cells is under 100 nM.

On to `CC(C)N(CC(F)(F)F)C(=O)c1cc(F)ccc1Oc1nncnc1N1CC2(CCN(C[C@H]3CC[C@H](NS(=O)(=O)N4CCC4)CO3)CC2)C1` (stereo in doubt) [Example 194, 2-((5-(7-(((2R,5S)-5-(Azetidine-1-sulfonamido)tetrahydro-2H-pyran-2-yl)methyl)-2,7-diazaspiro[3.5]nonan-2-yl)-1,2,4-triazin-6-yl)oxy)-5-fluoro-N-isopropyl-N-(2,2,2-trifluoroethyl)benzamide], for which the IC50 with MV4-11 cells is under 100 nM.

For `CC(C)N(C(=O)c1cc(F)ccc1Oc1cncnc1N1CC2(CCN(C[C@@H]3CC[C@@H](NS(=O)(=O)N(C)C)CO3)CC2)C1)C1COC1` [Compound 249, 2-((4-(7-(((2S,5R)-5-((N,N-Dimethylsulfamoyl)amino)tetrahydro-2H-pyran-2-yl)methyl)-2,7-diazaspiro[3.5]nonan-2-yl)pyrimidin-5-yl)oxy)-5-fluoro-N-isopropyl-N-(oxetan-3-yl)benzamide], the Ki on Menin-MLL was under 1 nM. Moreover, the “hERG % Remaining 30 μM” value at hERG was “+++ (“+++” means ≥66%)”.

For `CCS(=O)(=O)N[C@@H]1CC[C@@H](CN2CCC3(CC2)CN(c2ncncc2Oc2ccc(F)cc2C(=O)N(C(C)C)[C@@H]2CC[C@@H]2O)C3)OC1` [Compound 258, 2-((4-(7-(((2S,5R)-5-(Ethylsulfonamido)tetrahydro-2H-pyran-2-yl)methyl)-2,7-diazaspiro[3.5]nonan-2-yl)pyrimidin-5-yl)oxy)-5-fluoro-N-((1R,2S)-2-hydroxycyclobutyl)-N-isopropylbenzamide], at Menin-MLL, the EC50 was under 50 nM and the inhibition constant Ki was under 1 nM. Also, on hERG (10 μM compound), the “hERG % Remaining 10 μM” value is given as “+++ (“+++” means ≥66%)”. Also, the “hERG % Remaining 30 μM” value on hERG was “++ (“++” means ≥33% and <66%)”.

With `CCN(C(=O)c1cc(F)ccc1Oc1cncnc1N1CC2(CCN(C[C@@H]3CC[C@@H](NS(C)(=O)=O)CO3)CC2)C1)C(C)C` [Example 1, N-Ethyl-5-fluoro-N-isopropyl-2-((4-(7-(((2S,5R)-5-(methylsulfonamido)tetrahydro-2H-pyran-2-yl)methyl)-2,7-diazaspiro[3.5]nonan-2-yl)pyrimidin-5-yl)oxy)benzamide], the IC50 with MV4-11 cells is under 100 nM.

With `CCN(C(=O)c1cc(F)ccc1Oc1cncnc1N1CC2(CCN(C[C@@H]3CC[C@@H](NS(=O)(=O)CC)CO3)CC2)C1)C(C)C` [Example 2, N-Ethyl-2-((4-(7-(((2S,5R)-5-(ethylsulfonamido)tetrahydro-2H-pyran-2-yl)methyl)-2,7-diazaspiro[3.5]nonan-2-yl)pyrimidin-5-yl)oxy)-5-fluoro-N-isopropylbenzamide], the IC50 in the data set with MV4-11 cells was under 100 nM.

`CCN(C(=O)c1cc(F)ccc1Oc1cncnc1N1CC2(CCN(C[C@@H]3CC[C@@H](NS(=O)(=O)C(C)C)CO3)CC2)C1)C(C)C` [Example 3, N-Ethyl-5-fluoro-N-isopropyl-2-((4-(7-(((2S,5R)-5-((1-methylethyl)sulfonamido)tetrahydro-2H-pyran-2-yl)methyl)-2,7-diazaspiro[3.5]nonan-2-yl)pyrimidin-5-yl)oxy)benzamide]: in the data set with MV4-11 cells, the IC50 is under 100 nM.

`CCN(C(=O)c1cc(F)ccc1Oc1cncnc1N1CC2(CCN(C[C@@H]3CC[C@@H](NS(=O)(=O)C4CC4)CO3)CC2)C1)C(C)C` [Example 4, 2-((4-(7-(((2S,5R)-5-(Cyclopropanesulfonamido)tetrahydro-2H-pyran-2-yl)methyl)-2,7-diazaspiro[3.5]nonan-2-yl)pyrimidin-5-yl)oxy)-N-ethyl-5-fluoro-N-isopropylbenzamide]: the IC50 with MV4-11 cells was under 100 nM.

Consider `CCN(C(=O)c1cc(F)ccc1Oc1cncnc1N1CC2(CCN(C[C@@H]3CC[C@@H](NS(=O)(=O)C4COC4)CO3)CC2)C1)C(C)C` [Example 5, N-Ethyl-5-fluoro-N-isopropyl-2-((4-(7-(((2S,5R)-5-(oxetane-3-sulfonamido)tetrahydro-2H-pyran-2-yl)methyl)-2,7-diazaspiro[3.5]nonan-2-yl)pyrimidin-5-yl)oxy)benzamide], for which, in the data set on MV4-11 cells, the IC50 is under 100 nM.

As to `CCN(C(=O)c1cc(F)ccc1Oc1cncnc1N1CC2(CCN(C[C@@H]3CC[C@@H](NS(=O)(=O)C4CCC4)CO3)CC2)C1)C(C)C` [Example 6, 2-((4-(7-(((2S,5R)-5-(Cyclobutanesulfonamido)tetrahydro-2H-pyran-2-yl)methyl)-2,7-diazaspiro[3.5]nonan-2-yl)pyrimidin-5-yl)oxy)-N-ethyl-5-fluoro-N-isopropylbenzamide], the IC50 in the data set with MV4-11 cells is under 100 nM.

With `CCN(C(=O)c1cc(F)ccc1Oc1cncnc1N1CC2(CCN(C[C@@H]3CC[C@@H](NS(=O)(=O)CC4CC4)CO3)CC2)C1)C(C)C` [Example 7, 2-((4-(7-(((2S,5R)-5-((Cyclopropylmethyl)sulfonamido)tetrahydro-2H-pyran-2-yl)methyl)-2,7-diazaspiro[3.5]nonan-2-yl)pyrimidin-5-yl)oxy)-N-ethyl-5-fluoro-N-isopropylbenzamide], in the data set with MV4-11 cells, the IC50 was under 100 nM.

As for `CCN(C(=O)c1cc(F)ccc1Oc1cncnc1N1CC2(CCN(C[C@@H]3CC[C@@H](NS(=O)(=O)CCOC)CO3)CC2)C1)C(C)C` [Example 8, N-Ethyl-5-fluoro-N-isopropyl-2-((4-(7-(((2S,5R)-5-((2-methoxyethyl)sulfonamido)tetrahydro-2H-pyran-2-yl)methyl)-2,7-diazaspiro[3.5]nonan-2-yl)pyrimidin-5-yl)oxy)benzamide], the IC50 in the data set with MV4-11 cells is under 100 nM.

Turning to `CCCS(=O)(=O)N[C@@H]1CC[C@@H](CN2CCC3(CC2)CN(c2ncncc2Oc2ccc(F)cc2C(=O)N(CC)C(C)C)C3)OC1` [Example 9, N-Ethyl-5-fluoro-N-isopropyl-2-((4-(7-(((2S,5R)-5-(propylsulfonamido)tetrahydro-2H-pyran-2-yl)methyl)-2,7-diazaspiro[3.5]nonan-2-yl)pyrimidin-5-yl)oxy)benzamide], the IC50 in the data set with MV4-11 cells was under 100 nM.

On to `CCN(C(=O)c1cc(F)ccc1Oc1cncnc1N1CC2(CCN(C[C@@H]3CC[C@@H](NC(=O)OC(C)(C)C)CO3)CC2)C1)C(C)C` [Example 11, tert-Butyl ((3R,6S)-6-((2-(5-(2-(ethyl(isopropyl)carbamoyl)-4-fluorophenoxy)pyrimidin-4-yl)-2,7-diazaspiro[3.5]nonan-7-yl)methyl)tetrahydro-2H-pyran-3-yl)carbamate], for which, in the data set with MV4-11 cells, the IC50 was under 100 nM.

As usually defined, the Ki is the dissociation constant of the complex between target and ligand, obtained from inhibition or displacement. As a reminder, the EC50 is the concentration giving half of the maximal effect.
